Measured values: patent US20140088052A1, “CHALCONE DERIVATIVES AS NRF2 ACTIVATORS” (THE JOHNS HOPKINS UNIVERSITY, priority 2011, published 2014)
Like-named read-outs stand apart in the source and are kept apart here.

Tests used:
Format in all cases: cell-based, human
Beas-2B cells = assay: Cell viability / cytotoxicity (MTT assay) in Beas-2B cells; conditions: 24 h, DMSO = 100
Procedure: Concurrent with the gene expression analysis, the cytotoxicity of the chalcone derivatives was determined using the MTT assay.
Mad. Chem. 2007, 15, 2952-2962. […] Four hours before the end of incubation, the medium was removed and 100 μL of MTT (5 mg/mL in serum free medium) was added to each well. The MTT was removed after 4 h, cells were washed with PBS, and 100 μL DMSO was added to each well to dissolve the water-insoluble MTT-formazan crystals. The absorbance was recorded at 570 nm in a plate reader (Molecular Devices, Sunnyvale, Calif.).

Nrf2 [1] = assay: Expression of Nrf2-regulated genes GCLM and NQO1 by qRT-PCR in Beas-2B cells (screen); conditions: Homo sapiens, BEAS-2B, 16 h
Procedure: To investigate the potency of the presently disclosed chalcone derivatives to activate Nrf2, the expression of antioxidant genes, GCLM and NADPH-NQO1, two well characterized transcriptional targets of Nrf2, were measured as surrogate markers. By “marker” is meant any protein or polynucleotide having an alteration in expression level or activity that is associated with a disease, disorder, or condition. It has been previously shown that oxidants or small molecule activators of Nrf2 increase GCLM and NQO1 in cells or tissues of wild-type, but not in Nrf2-deficient mice. Osburn, W. O., et al., Genetic or pharmacologic amplification of Nrf2 signaling inhibits acute inflammatory liver injury in mice. Toxicol. Sci. 2008, 104(1), 218-227. […]
RNA was isolated and gene expression was measured after 16 h.
Total RNA was extracted from cells/tissue using Qiagen RNeasy kit (Qiagen Corporation, Valencia, Calif.) and reverse transcription was performed by using random hexamers and MultiScribe reverse transcriptase according to the manufacturer's recommendations (Applied Biosystems, Foster City, Calif., USA). Quantitative real-time RT-PCR analyses of Nrf2, NQO1, HO1, and GCLM were performed by using Assay-on-Demand primers and probe sets from Applied Biosystems. Assays were performed using the ABI 7000 Taqman system (Applied Biosystems, Foster City, Calif.). β-actin was used for normalization.

Nrf2 [2] = assay: Nrf2-regulated gene expression with or without N-acetyl-cysteine in Beas-2B cells; conditions: NAC 10 mM alone, 24 h
Procedure: Cells were harvested 24 h after the treatment and the Nrf2-driven expression of NQO1, HO-1, and GCLM was quantified. β-actin was used for normalization. Data are representative of three independent experiments. Values shown are mean±SD of triplicate wells (P≦0.05);
The activation of Nrf2 by various electrophiles and compounds that are Michael acceptors is attributed to changes in ROS production and or redox environment and or direct cysteine modification in Keap1. Nguyen, T., et al., The Nrf2-antioxidant response element signaling pathway and its activation by oxidative stress. J. Biol. Chem. 2009, 284, 13291-13295; McMahon, M., et al., Keap1 perceives stress via three sensors for the endogenous signaling molecules nitric oxide, zinc, and alkenals. Proc. Natl. Acad. Sci. U.S.A. 2010, 107, 18838-18843. Whether 2b activates Nrf2 by generating ROS or redox changes also was examined.

[3] = DMSO = 1.0 (Table 2), read-out: Relative Fold Change GCLM
[4] = DMSO = 1.0 (Table 2), read-out: Relative Fold Change NQO1
[5] = DMSO = 1 (Table 3), read-out: Relative Fold Change GCLM
[6] = DMSO = 1 (Table 3), read-out: Relative Fold Change NQO1

| Structure (SMILES) | % Cell Viability (Beas-2B cells) | fold induction at 10 µM (Nrf2 [1]; [3]) | fold induction at 10 µM (Nrf2 [1]; [4]) | fold induction at 10 µM (Nrf2 [1]; [5]) | fold induction at 10 µM (Nrf2 [1]; [6]) | induction of Nrf2-regulated genes, NAC alone (Nrf2 [2]) |
| --- | --- | --- | --- | --- | --- | --- |
| COc1cc(OC)c(C(=O)/C=C/c2ccccc2C(F)(F)F)c(OC)c1 [Compound 2l, (E)-1-(2,4,6-trimethoxyphenyl)-3-(2-(trifluoromethyl)phenyl)prop-2-en-1-one] | 145.3% | 4.4 | 4.3 | 4.4 | 4.3 | – |
| COc1ccccc1C(=O)/C=C/c1ccc(C(F)(F)F)cc1 [Compound 4b, (E)-1-(2-methoxyphenyl)-3-(4-(trifluoromethyl)phenyl)prop-2-en-1-one] | 91% | 4.3 | 5.4 | 4.3 | 5.4 | – |
| COc1cccc(C(=O)/C=C/c2ccccc2C(F)(F)F)c1 [Compound 2c, (E)-1-(3-methoxyphenyl)-3-(2-(trifluoromethyl)phenyl)prop-2-en-1-one] | 96.6% | 5.6 | 4.3 | 5.6 | 4.3 | – |
| COc1ccc(C(=O)/C=C/c2ccccc2C(F)(F)F)c(OC)c1OC [Compound 2k, (E)-1-(2,3,4-trimethoxyphenyl)-3-(2-(trifluoromethyl)phenyl)prop-2-en-1-one] | 101.6% | 5.4 | 4.1 | 5.4 | 4.1 | – |
| COc1ccc(C(=O)/C=C/c2ccccc2C(F)(F)F)c(OC)c1 [Compound 2e, (E)-1-(2,4-dimethoxyphenyl)-3-(2-(trifluoromethyl)phenyl)prop-2-en-1-one] | 105% | 5.4 | 4.5 | 5.4 | 4.5 | – |
| CC(=O)N[C@@H](CS)C(=O)O [NAC, N-acetyl-cysteine, reference compound] | – | – | – | – | – | no induction of Nrf2-regulated genes |
| COc1cc(OC)cc(C(=O)/C=C/c2cccc(C(F)(F)F)c2)c1 [Compound 3i, (E)-1-(3,5-dimethoxyphenyl)-3-(3-(trifluoromethyl)phenyl)prop-2-en-1-one] | 108.2% | 3.8 | 3.9 | 3.8 | 3.9 | – |
| COc1cccc(OC)c1C(=O)/C=C/c1ccccc1[N+](=O)[O-] [Compound 5f] | 75.8% | 4.1 | 3.7 | 4.1 | 3.7 | – |
| COc1cc(OC)cc(C(=O)/C=C/c2ccccc2C(F)(F)F)c1 [Compound 2i, (E)-1-(3,5-dimethoxyphenyl)-3-(2-(trifluoromethyl)phenyl)prop-2-en-1-one] | 87.1% | 4 | 3.7 | 4 | 3.7 | – |
| COc1ccc(OC)c(C(=O)/C=C/c2ccc(C(F)(F)F)cc2)c1 [Compound 4g] | 91.6% | 4.1 | 4 | 4.1 | 4 | – |
| COc1ccc(C(=O)/C=C/c2ccc(C(F)(F)F)cc2)c(OC)c1 [Compound 4e, (E)-1-(2,4-dimethoxyphenyl)-3-(4-(trifluoromethyl)phenyl)prop-2-en-1-one] | 92.6% | 5 | 4.8 | 5 | 4.8 | – |
| COc1cccc(OC)c1C(=O)/C=C/c1ccccc1C(F)(F)F [Compound 2f, (E)-1-(2,6-dimethoxyphenyl)-3-(2-(trifluoromethyl)phenyl)prop-2-en-1-one] | 101.1% | 5.7 | 5.3 | 5.7 | 5.3 | – |
| COc1cc(OC)cc(C(=O)/C=C/c2ccccc2[N+](=O)[O-])c1 [Compound 5i] | 90.9% | 3.4 | 4.1 | 3.4 | 4.1 | – |
| COc1ccc(C(=O)/C=C/c2ccccc2C(F)(F)F)cc1 [Compound 2d, (E)-1-(4-methoxyphenyl)-3-(2-(trifluoromethyl)phenyl)prop-2-en-1-one] | 96% | 5.4 | 4.6 | 5.4 | 4.6 | – |
| O=C(/C=C/c1ccccc1C(F)(F)F)c1ccccc1 [Compound 2a, (E)-1-phenyl-3-(2-(trifluoromethyl)phenyl)prop-2-en-1-one] | 144.8% | 5 | 5.3 | 5 | 5.3 | – |
| C[S+]([O-])CCCCN=C=S (stereo not shown) [Sulforaphane, reference compound] | 97.3% | 2.7 | 3.6 | 2.7 | 3.6 | – |
